Key:
[1] = In vitro serum stability of 90Y-radiolabeled bimodal chelator complexes; assay type: in vitro ADME; details: 90Y complex, human serum, pH 7, 37° C.
Experimental: Human serum was purchased from Gemini Bioproducts (#100110). The radiolabeled complexes was prepared and directly used for serum stability studies without further purification. The stability of the pure radiolabeled complexes in human serum was evaluated at 37° C. for 2 weeks. The serum stability of the radiolabeled complexes was assessed by measuring the transfer of the radionuclide from each complex to serum proteins using ITLC (acetonitrile/water (3:2 v/v). A solution of the radiolabeled complex in serum (5-16 μL for ITLC) was withdrawn at the designated time point and evaluated by ITLC. At each of the time points, the percentage of ^90Y released from each of the radiolabeled complexes into serum was assessed by ITLC.

[2] = In vitro serum stability of 177Lu-radiolabeled bimodal chelator complexes; assay type: in vitro ADME; details: 177Lu complex, human serum, pH 7, 37° C.
[3] = EDTA challenge of 177Lu-radiolabeled pyridyl chelators; assay type: physicochemical; details: 37° C.; for stability of 177Lu complex in EDTA solution: EDTA 100-fold molar excess, 24 h; for Bound (%): Lu-177 complex, EDTA solution 100-fold molar excess
Experimental: (§1) ^64Cu- or ^177Lu-radiolabeled complexes were prepared by reaction of each chelator (20 μg) with ^64Cu or ^177Lu (60 μCi) in 0.25M NH4OAc buffer (pH 5.5) for 2 h at room temperature. The radiolabeled complexes were prepared as described above and directly used for the experiments. The radiolabeled complex was mixed with EDTA at a 100-fold molar excess. The resulting mixture was incubated for 24 h at 37° C. The stability of ^64Cu-radiolabeled complexes in the solution was evaluated using ITLC (20 mM EDTA in 0.15M NH40OAc).

[4] = Serum stability of 64Cu-radiolabeled complexes of pyridyl chelators; assay type: in vitro ADME; details: 64Cu complex, human serum, 37° C.
Experimental: In vitro serum stability of the radiolabeled complexes was performed to determine if the chelators radiolabeled with ^64Cu remained stable without loss of the radioactivity in human serum as described above. All ^64Cu-radiolabeled chelators remained intact in human serum for 2 days as evidenced by ITLC and HPLC analysis.

[5] = EDTA challenge of 64Cu-radiolabeled pyridyl chelator; assay type: physicochemical; details: 37° C.; for Bound (%): Cu-64 complex, EDTA solution 100-fold molar excess
Experimental: as §1

[6] = EDTA challenge of 64Cu-radiolabeled complexes of chelators A-F; assay type: physicochemical; details: EDTA 100-fold molar excess; for Bound complex (%): 64Cu complex, 37° C.; for 64Cu activity dissociated from the complex / transferred to EDTA: 24 h time point
Experimental: ^64Cu-radiolabeled complexes were further evaluated for complex stability based on EDTA challenge. ^64Cu-radiolabeled complexes were freshly prepared and treated with a solution of EDTA at a 100-fold molar excess, and the resulting solution (pH 5.5) was incubated at 37° C. for 24 h. […] Among the complexes tested, ^64Cu-radiolabeled pentadentate chelator B was least tolerant of EDTA treated, and most of ^64Cu was dissociated from the complex (˜80%) at 24 h time point. ^64Cu-radiolabeled chelator C containing the carbonyl donor group was found dissociated rapidly in the presence of the excess EDTA, and 50% of the activity was transchelated by EDTA at 1 h time point. ^64Cu-radiolabeled chelators D and F with the respective hydroxyl and thiophenyl donor group were slower in dissociation than ^64Cu-radiolabeled chelators B and C and released >45% of ^64Cu at 24 h time point. Dissociation of the activity from the ^64Cu-radiolabeled chelators was also measured using radio-HPLC at 25 h time point (FIG. 5). The peak related to ^64Cu-EDTA (tR=2.5 min) was clearly separated from bound ^64Cu complex of the chelators. ^64Cu-radiolabeled complex of polar chelators E and F have the respective retention time at […] and 6.2 min, while other ^64Cu-radiolabeled complexes have similar retention time (tR=7˜8 min). The ^64Cu-radiolabeled chelators C and D gave a small peak (tR=˜3 min and tR=˜7 min, respectively).
^64Cu-radiolabeled complexes were prepared by reaction of each chelator (20 μg) with ^64Cu (60 μCi) in 0.25M NH4OAc buffer (pH 5.5) for 2 h at room temperature. The radiolabeled complexes were prepared as described above and directly used for the experiments. ^64Cu-radiolabeled complex was mixed with EDTA at a 100-fold molar excess. The resulting mixture was incubated for 24 h at 37° C. The stability of ^64Cu-radiolabeled complexes in the solution was evaluated using ITLC (20 mM EDTA in 0.15M NH4OAc). A solution of the radiolabeled complex in serum (3˜20 μL) was withdrawn at the designated time points and evaluated by ITLC as described above. Stability of the complexes was also evaluated at 25 h time point by HPLC (solvent A: 0.1% TFA in H2O, solvent B: 0.1% TFA in CH3CN, 0-100% B/15 min, flow rate: 1 mL/min). ^64Cu-EDTA complex was eluted early (tR=˜2.5 min), while ^64Cu-radiolabeled complexes of chelators A-D, E, and F have the respective retention time (tR=7˜8 min, tR=4.6 min, and tR=6.2 min).

[7] = Stability and radioactivity level of 64Cu complexes in mice; assay type: in vivo; details: 64Cu complex

Structure (SMILES) | Bound complex (%) ([4]; pH 7, HPLC, 0 hour) | Bound complex (%) ([4]; pH 7, HPLC, 19 hour) | Bound complex (%) ([4]; pH 7, HPLC, 48 hour) | Bound complex (%) ([4]; pH 7, ITLC, 0 hour) | Bound complex (%) ([4]; pH 7, ITLC, 19 hour) | Bound complex (%) ([4]; pH 7, ITLC, 48 hour) | Bound complex (%) ([6]; pH 5.5, ITLC, 0 h) | Bound complex (%) ([6]; pH 5.5, ITLC, 1 h) | Bound complex (%) ([6]; pH 5.5, ITLC, 4 h) | Bound complex (%) ([6]; pH 5.5, ITLC, 19 h) | Bound complex (%) ([6]; pH 5.5, ITLC, 24 h) | Bound complex (%) ([6]; pH 5.5, radio-HPLC, 25 h) | further results
O=C(O)CN1CCN(CCN(CC(=O)O)CC(=O)O)CCN(CC(CCCc2ccc([N+](=O)[O-])cc2)N(CC(=O)O)CC(=O)O)CC1 (centres unmarked) [Chelator 1] | – | – | – | – | – | – | – | – | – | – | – | – | Bound radiolabeled complex (%) ([1]; 0 hour): 100 ± 0.00%; Bound radiolabeled complex (%) ([1]; 262 hour): 98.9 ± 1.34%; Bound radiolabeled complex (%) ([1]; 286 hour): 97.3 ± 2.92%; Bound radiolabeled complex (%) ([1]; 313 hour): 97.2 ± 2.46%; Bound radiolabeled complex (%) ([1]; 336 hour): 98.4 ± 0.67%; Bound radiolabeled complex (%) ([2]; 0 hour): 100 ± 0.07%; Bound radiolabeled complex (%) ([2]; 312 hour): 100 ± 0.00%
O=C(O)CN(CCN1CCN(CCN(CC(=O)O)CC(=O)O)CCN(CC(CCCc2ccc([N+](=O)[O-])cc2)N(CC(=O)O)CC(=O)O)CC1)CC(=O)O (centres unmarked) [Chelator 2, 2-{[2-(4-{2-[bis(carboxymethyl)amino]-5-(4-nitrophenyl)pentyl}-7-{2-[bis(carboxy-methyl)amino]ethyl}-1,4,7-triazonan-1-yl)ethyl](carboxymethyl)amino}acetic acid] | – | – | – | – | – | – | – | – | – | – | – | – | Bound radiolabeled complex (%) ([2]; 0 hour): 99.9 ± 0.0%
O=C(O)CN1CCN(CCN(CC(=O)O)Cc2ccccn2)CCN(CC(=O)O)CC1 [Chelator 4] | (99.9 ± 0.0) % | (99.9 ± 0.07) % | (100.0 ± 0.0) % | 99.9 ± 0.0 | 100 ± 0.0% | 100 ± 0.07 | – | – | – | – | – | – | stability of 177Lu complex in EDTA solution [3]: remained stable in EDTA solution without releasing significant amount of the radioactivity; Bound (%) ([3]; pH 5.5, 0 hour): 99.8%; Bound (%) ([3]; pH 5.5, 1 hour): 99.5%; Bound (%) ([3]; pH 5.5, 6 hour): 99.2%; Bound (%) ([3]; pH 5.5, 24 hour): 98.3%
NCCCNC(=O)c1ccc(CN(CCN2CCN(CC(=O)O)CCN(CC(=O)O)CC2)CC(=O)O)nc1 [Chelator 10] | (98.3 ± 2.0) % | (96.7 ± 0.0) % | (97.2 ± 0.21) % | 99.9 ± 0.07 | 99.8 ± 0.14% | 99.9 ± 0.0 | – | – | – | – | – | – | stability of 177Lu complex in EDTA solution [3]: remained stable in EDTA solution without releasing significant amount of the radioactivity; Bound (%) ([3]; pH 5.5, 0 hour): 99.8%; Bound (%) ([3]; pH 5.5, 1 hour): 95.7%; Bound (%) ([3]; pH 5.5, 6 hour): 94.9%; Bound (%) ([3]; pH 5.5, 24 hour): 94.6%
NCCCNC(=O)c1ccc(CN2CCN(CC(=O)O)CCN(CC(=O)O)CC2)nc1 [Chelator 13] | (100 ± 0.0) % | (100 ± 0.0) % | (100 ± 0.0) % | 100.0 ± 0.07 | 100.0 ± 0.0^ % | 99.9 ± 0.07 | – | – | – | – | – | – | Bound (%) ([5]; pH 5.5, 0 hour): 100 ± 0.07%; Bound (%) ([5]; pH 5.5, 1 hour): 99.9 ± 0.07%; Bound (%) ([5]; pH 5.5, 24 hour): 99.2 ± 0.42%; stability of 64Cu complex in EDTA challenge ([5]; EDTA 100-fold molar excess, 24 h): extremely stable in EDTA challenge
O=C(O)CN1CCN(CC(=O)O)CCN(C(CCc2ccc([N+](=O)[O-])cc2)C(=O)O)CC1 (centres unmarked) [Chelator A, 2-[4,7-bis(carboxymethyl)-1,4,7-triazonan-1-yl]-4-(4-nitrophenyl)butanoic acid, reference compound] | – | – | – | – | – | – | 99.9 ± 0.1 | 98.6 ± 0.6 | 96.8 ± 0.0 | 95.3 ± 0.5 | 94.9 ± 0.0 | 90.3 ± 0.3 | 64Cu activity dissociated from the complex / transferred to EDTA [6]: ~5%; stability in mice and radioactivity level in blood and normal organs [7]: stable in mice and displayed low radioactivity level in the blood and the normal organs
O=C(O)CN1CCN(CCCc2ccc([N+](=O)[O-])cc2)CCN(CC(=O)O)CC1 [Chelator B, 2-[4-(carboxymethyl)-7-[3-(4-nitrophenyl)propyl]-1,4,7-triazonan-1-yl]acetic acid] | – | – | – | – | – | – | 99.9 ± 0.1 | 90.4 ± 0.1 | 69.2 ± 0.3 | 22.9 ± 2.1 | 19.4 ± 1.1 | 11.9 ± 0.6 | 64Cu activity dissociated from the complex / transferred to EDTA [6]: ~80%
O=C(O)CN1CCN(CC(=O)O)CCN(CC(=O)CCc2ccc([N+](=O)[O-])cc2)CC1 [Chelator C, 2-[4-(carboxymethyl)-7-[4-(4-nitrophenyl)-2-oxobutyl]-1,4,7-triazonan-1-yl]acetic acid] | – | – | – | – | – | – | 97.7 ± 0.2 | 50.4 ± 0.4 | 45.8 ± 1.5 | 41.0 ± 0.4 | 39.0 ± 0.2 | 21.7 ± 1.3 | 64Cu activity transchelated by EDTA ([6]; 1 h time point): 50%
O=C(O)CN1CCN(CC(=O)O)CCN(CC(O)CCc2ccc([N+](=O)[O-])cc2)CC1 (centres unmarked) [Chelator D, 2-[4-(carboxymethyl)-7-[2-hydroxy-4-(4-nitrophenyl)butyl]-1,4,7-triazonan-1-yl]acetic acid] | – | – | – | – | – | – | 99.5 ± 0.3 | 86.8 ± 0.7 | 79.1 ± 0.4 | 59.3 ± 0.0 | 55.0 ± 0.6 | 41.0 ± 2.6 | –
O=C(O)CN1CCN(CC(=O)O)CCN(Cc2cccs2)CC1 [Chelator F, 2-[4-(carboxymethyl)-7-(thiophen-2-ylmethyl)-1,4,7-triazonan-1-yl]acetic acid] | – | – | – | – | – | – | 100 ± 0.1 | 95.7 ± 0.5 | 87.5 ± 0.4 | 59.5 ± 0.6 | 53.4 ± 1.7 | 42.3 ± 0.3 | –

From patent US10441669B2, “Multifunctional chelators, complexes, and compositions thereof, and methods of using same” (ILLINOIS INSTITUTE OF TECHNOLOGY, priority 2013, dated 2019)
